According to patent US20080076824A1, “Compounds That Inhibit Replication Of Human Immunodeficiency Virus” (priority 2004, published 2008):
Values joined by “and” are separate entries in the source; they are usually repeats but may differ in a detail not shown here. Identical values can stand only once. Counter-ions that a name gives are not always drawn. Residues, ends and D or L forms follow the SMILES beside them.

Key:
[1] = Microdose study of 14C-AlphaHGA in healthy volunteers, urine pharmacokinetics (AMS); type: in vivo, human; conditions: for cumulative recovery of the dose in the urine over 24 hr: range; for AUCTmax / AUClast / Dlast / Dmax / Tmax / Tfirst / Tlast: urine
Experimental: In this example, the pharmacokinetics (PK) and oral bioavailability of AlphaHGA in adult healthy volunteers following a single ‘microdose’ in a sequence-randomized, cross-over study design (two periods 7 days apart) was determined. Clinical experiments were conducted with low-level radiolabelled (^14C) AlphaHGA administered intravenously (IV) orally (PO) with serial blood and urine samples were collected for concentration analysis utilizing accelerator mass spectrometry (AMS).
Accordingly, eight subjects were enrolled into a single dose cross-over study. The subjects were randomly assigned to one of two administration sequences. Subjects that were assigned to sequence 1 received AlphaHGA as an oral preparation first (Period 1) followed by the intravenous (IV) preparation 1 week later (Period 2). Subjects assigned to sequence 2 received AlphaHGA as an intravenous preparation first followed by the oral preparation 1 week later. Four subjects were assigned to sequence 1 and four subjects were assigned to sequence 2.
For both oral and IV doses subjects were administered 100 nCi (3.7 Kbq) of alphaHGA, which was determined to contain 1.602888×10ˆ6 fmol of ^14C. The specific activity of each dose was 46.619 MBq/mol (or 1.260 mCi/mol). A stock blend of ^14C-labelled alphaHGA was produced prior to the first study period. The actual formulations used for dosing were prepared on the morning prior to each study period. The infusion was a single bolus injection with both the infusion and flush were completed in less than 30 seconds.
Urine samples were collected at pre-dose and during post-dose time intervals: 0 to 4, 4 to 8, 8 to 12, 12 to 16, and 16 to 24 hours. All urine collections were obtained. Cumulative urine voidings for the specified time intervals were collected in standard collection containers without additional modifiers or preservatives
Plasma specimens (30 μL) were analyzed directly via the combustive procedure without further chemical manipulation. For the purposes of calculating ^14C concentration per volume of plasma, a general carbon content of 45% (dry mass) was applied. The urine was mixed with equal volumes (0.5 mL) of a sucrose carbon diluent solution (200 g/L) and mixed by inversion in a disposable polypropylene centrifuge tube. A 20-μL sample was graphitized for AMS analysis according to standard procedures. The mass fraction of the urine represented in the measured sample was inverted and multipled by the ^14C contents above background derived from the AMS measurement to calculate the ^14C content in the total urine void. A density value of 1 g/mL for urine was assumed to calculate its volume from the recorded masses.
Area-under-the-plasma-concentration-time curve from time zero to the last quantified concentration (AUClast), was calculated by the linear trapezoidal method from the observed concentrations. Area-under-the concentration-time curve from time zero to infinity (AUCinf) was obtained as the sum of AUClast and the extrapolation term Clast/λz, where Clast denotes the last observed quantifiable concentration. The percentage of AUCinf obtained by extrapolation (AUC % extrap) was calculated as [(AUCinf−AUClast)/AUCinf]*100. It should be noted that the area for the IV plasma data will result in an underestimation of the AUC in the first trapezoid because the concentration at time 0 was set to 0 and there is not reasonable way to impute a value at time 0. Area-under-the-concentration-time curve from time zero to the maximum concentration (AUCTmax) was calculated by the linear trapezoidal method. […]. This approach was necessary given the nature of the parameters requested by the sponsor.
Values for the following PK parameters were estimated from urine levels of AlphaHGA during the various time intervals. […]

[2] = Conversion of radiolabeled G-NH2 to modified G-NH2 by fetal bovine sera; type: in vitro ADME; conditions: 10% fetal bovine sera in PBS, 37° C.
Experimental: Several lots of human sera and fetal bovine sera were analyzed for their ability to convert G-NH2 to modified G-NH2. Radiolabeled cation exchange HPLC purified G-NH2 (see EXAMPLE 3) was incubated with the various sera at a 10% final concentration in PBS at 37° C. for 15 minutes and 1, 6, 24, or 72 hours. Subsequently, the amount of radiolabeled modified G-NH2 was evaluated using the cation exchange HPLC approach described above.

[3] = molecular target: glycine oxidase from Bacillus subtilis (Bacillus subtilis, UniProt O31616)
glycine oxidase from Bacillus subtilis, sequence (O31616 whole entry): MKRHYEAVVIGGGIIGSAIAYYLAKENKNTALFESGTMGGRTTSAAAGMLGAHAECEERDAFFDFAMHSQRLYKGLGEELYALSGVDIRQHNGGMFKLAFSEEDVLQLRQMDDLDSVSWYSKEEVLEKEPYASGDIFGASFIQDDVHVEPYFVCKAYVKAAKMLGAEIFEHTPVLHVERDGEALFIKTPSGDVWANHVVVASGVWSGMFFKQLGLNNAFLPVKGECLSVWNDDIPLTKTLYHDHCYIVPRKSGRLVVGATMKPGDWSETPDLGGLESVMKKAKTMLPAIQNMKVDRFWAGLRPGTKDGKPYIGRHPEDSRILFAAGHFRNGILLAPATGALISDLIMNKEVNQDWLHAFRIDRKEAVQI

[4] = system: HIV-1 laboratory strains and clinical isolates; conditions: wide variety of HIV-1 laboratory strains and clinical isolates; cited from earlier work
[5] = route iv, individual subjects 1-8, period 1 or 2, hydrochloride, dosing period 1
[6] = route iv, individual subjects 1-8, period 1 or 2, hydrochloride, dosing period 2
[7] = route po, individual subjects 1-8, period 1 or 2, dosing period 1
[8] = route po, individual subjects 1-8, period 1 or 2, dosing period 2
[9] = route po, individual subjects 1-8, period 1 or 2, hydrochloride, dosing period 1
[10] = route po, individual subjects 1-8, period 1 or 2, hydrochloride, dosing period 2

## NC(=O)C(N)O (stereo not drawn) [AlphaHGA, α-Hydroxy-glycinamide hydrochloride]
[1]; IV administration
  cumulative recovery of the dose in the urine over 24 hr, mean: 63.7
  cumulative recovery of the dose in the urine over 24 hr: 35-100%
[1]; oral administration
  cumulative recovery of the dose in the urine over 24 hr: 34-100%
[1]; Period 1, Max
  AUCTmax: 748180 fmol·h
  AUClast: 2934335 fmol·h
  Dlast: 41355 fmol
  Dmax: 374090 fmol
[1]; Period 1, Mean
  AUCTmax: 654984 fmol·h
  AUClast: 2575235 fmol·h
  Dlast: 29774 fmol
  Dmax: 327492 fmol
[1]; Period 1, Min
  AUCTmax: 459180 fmol·h
  AUClast: 2239453 fmol·h
  Dlast: 19395 fmol
  Dmax: 229590 fmol
[1]; Period 2, Max
  AUCTmax: 1882171 fmol·h
  AUClast: 6993866 fmol·h
  Dlast: 133040 fmol
  Dmax: 941085 fmol
[1]; Period 2, Mean
  AUCTmax: 1437891 fmol·h
  AUClast: 6007590 fmol·h
  Dlast: 98450 fmol
  Dmax: 718945 fmol
[1]; Period 2, Min
  AUCTmax: 1207722 fmol·h
  AUClast: 5220702 fmol·h
  Dlast: 48888 fmol
  Dmax: 603861 fmol
[1]; Route iv, Max
  AUCTmax: 1489152 fmol·h
  AUClast: 6540408 fmol·h
  Dlast: 114767 fmol
  Dmax: 744576 fmol
[1]; Route iv, Mean
  AUCTmax: 964045 fmol·h
  AUClast: 4155954 fmol·h
  Dlast: 61864 fmol
  Dmax: 482022 fmol
[1]; Route iv, Min
  AUCTmax: 459180 fmol·h
  AUClast: 2368127 fmol·h
  Dlast: 19716 fmol
  Dmax: 229590 fmol
[1]; Route po, Max
  AUCTmax: 1882171 fmol·h
  AUClast: 6993866 fmol·h
  Dlast: 133040 fmol
  Dmax: 941085 fmol
[1]; Route po, Mean
  AUCTmax: 1128830 fmol·h
  AUClast: 4426871 fmol·h
  Dlast: 66360 fmol
  Dmax: 564415 fmol
[1]; Route po, Min
  AUCTmax: 710260 fmol·h
  AUClast: 2239453 fmol·h
  Dlast: 19395 fmol
  Dmax: 355130 fmol
[1]; route iv, individual subjects 1-8, period 1 or 2
  Tmax: 4 h
[1]; route iv, individual subjects 1-8, period 1 or 2, dosing period 1
  Tfirst: 4 h
[1]; route iv, individual subjects 1-8, period 1 or 2, dosing period 2
  Tfirst: 4 h
[1]; [5]
  AUCTmax: 684594 fmol·h and 543376 fmol·h and 639322 fmol·h and 459180 fmol·h
  AUClast: 2934335 fmol·h and 2573446 fmol·h and 2551259 fmol·h and 2368127 fmol·h
  Dlast: 32699 fmol and 40072 fmol and 41355 fmol and 19716 fmol
  Dmax: 342297 fmol and 271688 fmol and 319661 fmol and 229590 fmol
  Tlast: 24 h
[1]; [6]
  AUCTmax: 1207722 fmol·h and 1479193 fmol·h and 1489152 fmol·h and 1209818 fmol·h
  AUClast: 5505102 fmol·h and 5554250 fmol·h and 6540408 fmol·h and 5220702 fmol·h
  Dlast: 48888 fmol and 88098 fmol and 109317 fmol and 114767 fmol
  Dmax: 603861 fmol and 739597 fmol and 744576 fmol and 604909 fmol
  Tlast: 24 hr (3×) and 16 hr
[1]; route po, individual subjects 1-8, period 1 or 2
  Tmax: 4 h
[1]; [7]
  Tfirst: 4 h
  Tlast: 24 h
[1]; [8]
  Tfirst: 4 h
  Tlast: 24 h
[1]; [9]
  AUCTmax: 727839 fmol·h and 710260 fmol·h and 727119 fmol·h and 748180 fmol·h
  AUClast: 2696170 fmol·h and 2239453 fmol·h and 2618588 fmol·h and 2620500 fmol·h
  Dlast: 22280 fmol and 30936 fmol and 19395 fmol and 31737 fmol
  Dmax: 363920 fmol and 355130 fmol and 363559 fmol and 374090 fmol
[1]; [10]
  AUCTmax: 1882171 fmol·h and 1326533 fmol·h and 1425912 fmol·h and 1482625 fmol·h
  AUClast: 6993866 fmol·h and 6127092 fmol·h and 6093252 fmol·h and 6026045 fmol·h
  Dlast: 80465 fmol and 133040 fmol and 109798 fmol and 103226 fmol
  Dmax: 941085 fmol and 663266 fmol and 712956 fmol and 741313 fmol

## NCC(N)=O [G-NH2, glycinamide]
[2]; 6 hours
  conversion of G-NH2 to modified G-NH2: 6-10%
[2]; 24 hours
  conversion of G-NH2 to modified G-NH2: 18-32%
[3]
  conversion of G-NH2 to Metabolite X: unable to convert

## NCC(=O)N1CCC[C@H]1C(=O)NCC(N)=O [GPG-NH2, glycylprolylglycinamide] (H-Gly-Pro-Gly-NH2)
[4]
  concentration range blocking HIV-1: 2 to 40 µM
